Three compounds from patent US6075132A, “Ursodeoxycholic acid derivatives and methods for producing them” (Bio Research Corporation of Yokohama, priority 1998, dated 2000) can be followed below.

The data set in a line: Solubility in water (membrane-filtered supernatant after 18 h stirring; phenol-sulfuric acid method and HPLC). It counts as physicochemical. Particulars: for solubility in water relative to that of ursodeoxycholic acid: 1080 min. As to the method: 20 mg of the ursodeoxycholic acid derivative prepared above and shown in Table 1 below was sampled, to which was added 0.2 ml of water and stirred for 18 hours. The resulting supernatant was taken out through filtration with a membrane filter (0.45μm), and analyzed according to the phenol-sulfuric acid method and through HPLC. The condition for HPLC was as follows:
Column: YMC's YMC-Pack ODS-AQ-303 (4.6×250 mm)
Detector: Photo-diode array detector (202 nm)
Amount Charged into Column: 20 μl

Converted amounts (≈) assume the structure as drawn. Read-outs that look alike come from different tables or passages of the source.

In general, solubility refers to the dissolved amount per volume that the medium holds.

`C[C@H](CCC(=O)O)[C@H]1CC[C@H]2[C@@H]3[C@@H](O)C[C@@H]4C[C@H](O)CC[C@]4(C)[C@H]3CC[C@]12C` [Ursodeoxycholic acid, ursodeoxycholic acid]: the solubility at 18 h (water, stirred for 18 hours, read-out: Solubility in Water) stood at 38 µg/mL (≈ 96.8 µM).

For the compound `C[C@H](CCC(=O)O)[C@H]1CC[C@H]2[C@@H]3[C@@H](OC(=O)COC4O[C@H](CO)[C@@H](O)[C@H](O)[C@H]4O)C[C@@H]4C[C@H](OC(=O)COC5O[C@H](CO)[C@@H](O)[C@H](O)[C@H]5O)CC[C@]4(C)[C@H]3CC[C@]12C` (stereo partly drawn) [3,7-GLG-ursodeoxycholic acid, diglycosyloxyacetyl-3,7-ursodeoxycholic acid], the “solubility in water relative to that of ursodeoxycholic acid” value is on record as “about 2500 times”. Moreover, the concentration in solution (water) (solubility at 18 h) was 95000 µg/mL (≈ 114000 µM). For the same compound, for the setting “water, 18 h”, the “Solubility in Water” value was determined as 95000 µg/mL (≈ 114000 µM).

As to `C[C@H](CCC(=O)OCCOC1O[C@H](CO)[C@@H](O)[C@H](O)[C@H]1O)[C@H]1CC[C@H]2[C@@H]3[C@@H](O)C[C@@H]4C[C@H](O)CC[C@]4(C)[C@H]3CC[C@]12C` (stereo partly drawn) [24-GLG-ursodeoxycholic acid, glycosyloxyethyl-24-ursodeoxycholic acid], the “solubility in water relative to that of ursodeoxycholic acid” value was “about 13 times”. The same compound yielded a solubility at 18 h (water) of 511 µg/mL (≈ 853 µM).
